Measurements from PMC11951083, “Highly Specific Miniaturized Fluorescent Monoacylglycerol Lipase Probes Enable Translational Research” (Journal of the American Chemical Society, 2025).
pIC50: −log10 of the molar value. Like-named read-outs stand apart in the source and are kept apart here.

How the values were obtained:
[1] = target: T1, NanoLuc luciferase MAGL fusion protein (Homo sapiens, UniProt Q99685); assay: Cellular MAGL NanoBRET target engagement assay in live HEK293 cells; type: cell-based
T1 sequence (Q99685 1-303): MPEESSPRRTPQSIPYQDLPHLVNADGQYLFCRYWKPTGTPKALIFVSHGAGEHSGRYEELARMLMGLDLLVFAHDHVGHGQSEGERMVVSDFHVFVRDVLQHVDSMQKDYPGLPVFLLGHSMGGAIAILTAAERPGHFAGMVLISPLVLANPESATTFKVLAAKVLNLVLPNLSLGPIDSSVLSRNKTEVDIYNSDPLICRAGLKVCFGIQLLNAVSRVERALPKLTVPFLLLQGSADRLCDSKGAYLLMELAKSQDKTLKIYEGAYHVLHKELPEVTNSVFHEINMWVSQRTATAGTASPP
Experimental: This assay was performed as first described before.20
Compounds were profiled by a novel cellular MAGL NanoBRET™ Target Engagement assay, which measures the apparent affinity of test compounds by competitive displacement of a Roche -developed Tracer (WO2021058443, Example 2 121, or probe 4a, respectively), reversibly bound to a NanoLuc ® luciferase MAGL fusion protein in cells.
A HEK293A stable cell line expressing NanoLuc_MAGL was established at Roche and assigned as HEK293A_NanoLuc_MAGL clone #43. A fixed concentration of tracer is added to cells expressing the NanoLuc®_MAGL fusion protein to generate a BRET reporter complex. The introduction of competing compounds results in a dose -dependent decrease in NanoBRET™ energy transfer, which allows quantification of the intracellular affinity of the target protein for the test compound.
HEK293A_NanoLuc_MAGL clone #43 cells were cultured in DMEM (Gibco 31966) with 10% FBS and 800 ug/ml G418. The NanoBRET assay was performed by seeding 5000 cells/well in Costar low - volume white 384-well plate in assay buffer (1% FBS in HBSS), followed by adding the tracer (50 nM Example 21 or 100 nM 4a final concentration) and serial dilutions of test compounds. After 2 hours of incubation, Nanoluciferase substrates and extracellular inhibitors were added following the manufacturer's protocol (Promega, #N2520), and the NanoBRET signaling were quantified with the Paradigm (Molecular Devices).

COX2(h) = target: T2, COX2(h) (Homo sapiens, UniProt P35354); assay: COX2(h); details: read-out: Inhibition COX2(h)
T2 sequence (P35354 18-604): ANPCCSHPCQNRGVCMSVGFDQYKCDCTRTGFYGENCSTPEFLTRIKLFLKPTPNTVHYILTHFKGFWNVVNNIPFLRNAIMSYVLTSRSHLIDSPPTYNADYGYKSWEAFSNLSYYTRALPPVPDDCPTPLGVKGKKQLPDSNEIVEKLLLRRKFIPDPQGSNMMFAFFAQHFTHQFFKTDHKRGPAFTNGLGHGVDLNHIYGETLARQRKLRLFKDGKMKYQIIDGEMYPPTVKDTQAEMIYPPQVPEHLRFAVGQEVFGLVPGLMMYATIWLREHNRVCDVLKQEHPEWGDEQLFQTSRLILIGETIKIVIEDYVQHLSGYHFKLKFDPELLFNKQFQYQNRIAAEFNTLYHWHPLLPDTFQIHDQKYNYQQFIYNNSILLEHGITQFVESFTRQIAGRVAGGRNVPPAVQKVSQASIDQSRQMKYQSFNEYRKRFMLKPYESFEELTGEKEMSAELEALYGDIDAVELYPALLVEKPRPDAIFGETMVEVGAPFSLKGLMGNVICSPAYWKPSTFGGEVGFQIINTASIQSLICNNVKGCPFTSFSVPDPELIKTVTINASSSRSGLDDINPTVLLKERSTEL

HIV-1 protease = assay: HIV-1 protease; details: 10 µM
CDK2 (h) (cycA) = CDK2 (h) (cycA) (Homo sapiens, UniProt P24941); assay: CDK2 (h) (cycA); details: read-out: Inhibition CDK2 (h) (cycA)
acetylcholinesterase (h) = acetylcholinesterase (h) (Homo sapiens, UniProt P22303); assay: acetylcholinesterase (h); details: read-out: Inhibition acetylcholinesterase (h)
Chain of acetylcholinesterase (h) (P22303 32-614): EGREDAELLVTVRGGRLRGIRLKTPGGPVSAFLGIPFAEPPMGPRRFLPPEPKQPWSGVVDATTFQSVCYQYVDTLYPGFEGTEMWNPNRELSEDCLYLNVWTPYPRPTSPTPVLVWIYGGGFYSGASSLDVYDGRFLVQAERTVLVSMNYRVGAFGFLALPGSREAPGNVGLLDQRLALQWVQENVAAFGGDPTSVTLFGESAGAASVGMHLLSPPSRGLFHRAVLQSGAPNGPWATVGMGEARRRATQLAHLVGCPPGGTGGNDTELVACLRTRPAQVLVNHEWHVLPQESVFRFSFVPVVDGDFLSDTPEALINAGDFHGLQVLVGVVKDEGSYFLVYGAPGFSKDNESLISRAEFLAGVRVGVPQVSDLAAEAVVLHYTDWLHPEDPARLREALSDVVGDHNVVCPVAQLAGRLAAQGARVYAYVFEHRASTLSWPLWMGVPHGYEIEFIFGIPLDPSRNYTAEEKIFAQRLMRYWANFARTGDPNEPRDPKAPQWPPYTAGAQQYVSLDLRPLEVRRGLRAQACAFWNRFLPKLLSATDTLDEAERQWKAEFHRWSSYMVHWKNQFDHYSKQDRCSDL

A1 (h) = target: T3, A1 (h) (Homo sapiens, UniProt P30542); assay: A1 (h) (agonist radioligand); details: read-out: Inhibition A1 (h) (agonist radioligand)
T3 sequence (P30542 1-326): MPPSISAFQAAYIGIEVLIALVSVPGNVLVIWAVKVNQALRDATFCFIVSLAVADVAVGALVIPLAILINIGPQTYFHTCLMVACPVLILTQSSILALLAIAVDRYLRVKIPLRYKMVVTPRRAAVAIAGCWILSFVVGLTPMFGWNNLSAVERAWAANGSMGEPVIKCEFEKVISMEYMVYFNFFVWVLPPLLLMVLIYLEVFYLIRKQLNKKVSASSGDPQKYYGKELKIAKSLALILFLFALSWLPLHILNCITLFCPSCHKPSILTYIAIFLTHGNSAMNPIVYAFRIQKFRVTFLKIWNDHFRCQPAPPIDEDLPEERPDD

M1 (h) = target: T4, M1 (h) (Homo sapiens, UniProt P11229); assay: M1 (h) (antagonist radioligand); details: read-out: Inhibition M1 (h) (antagonist radioligand)
T4 sequence (P11229 1-460): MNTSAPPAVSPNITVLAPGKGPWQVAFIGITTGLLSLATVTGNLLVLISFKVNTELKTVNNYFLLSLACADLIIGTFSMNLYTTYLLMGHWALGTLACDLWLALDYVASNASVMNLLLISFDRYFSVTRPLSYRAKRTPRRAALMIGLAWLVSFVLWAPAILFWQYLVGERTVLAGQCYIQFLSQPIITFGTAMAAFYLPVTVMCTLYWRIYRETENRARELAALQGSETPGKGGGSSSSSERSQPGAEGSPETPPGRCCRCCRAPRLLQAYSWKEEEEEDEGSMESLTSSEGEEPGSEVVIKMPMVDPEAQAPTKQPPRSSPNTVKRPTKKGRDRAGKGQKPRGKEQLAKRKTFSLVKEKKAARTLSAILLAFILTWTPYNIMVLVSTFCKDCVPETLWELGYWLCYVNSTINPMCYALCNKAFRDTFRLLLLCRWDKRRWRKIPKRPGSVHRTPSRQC

[2] = system: 50 clinically relevant and safety-related off-targets; assay: CEREP panel of 50 off-targets (overall); details: for selectivity profile in off-target panel: 10 μM, panel of 50 unrelated off-target receptors and enzymes; for S(90): fraction of targets with more than 90% inhibition at 10 µM; for S(50): fraction of targets with more than 50% inhibition at 10 µM
N muscle-type (h) = N muscle-type (h) (antagonist radioligand); details: 10 µM
5-HT transporter (h) = 5-HT transporter (h) (Homo sapiens, UniProt P31645); assay: 5-HT transporter (h) (antagonist radioligand); details: read-out: Inhibition 5-HT transporter (h) (antagonist radioligand)
Chain of 5-HT transporter (h) (P31645 whole entry): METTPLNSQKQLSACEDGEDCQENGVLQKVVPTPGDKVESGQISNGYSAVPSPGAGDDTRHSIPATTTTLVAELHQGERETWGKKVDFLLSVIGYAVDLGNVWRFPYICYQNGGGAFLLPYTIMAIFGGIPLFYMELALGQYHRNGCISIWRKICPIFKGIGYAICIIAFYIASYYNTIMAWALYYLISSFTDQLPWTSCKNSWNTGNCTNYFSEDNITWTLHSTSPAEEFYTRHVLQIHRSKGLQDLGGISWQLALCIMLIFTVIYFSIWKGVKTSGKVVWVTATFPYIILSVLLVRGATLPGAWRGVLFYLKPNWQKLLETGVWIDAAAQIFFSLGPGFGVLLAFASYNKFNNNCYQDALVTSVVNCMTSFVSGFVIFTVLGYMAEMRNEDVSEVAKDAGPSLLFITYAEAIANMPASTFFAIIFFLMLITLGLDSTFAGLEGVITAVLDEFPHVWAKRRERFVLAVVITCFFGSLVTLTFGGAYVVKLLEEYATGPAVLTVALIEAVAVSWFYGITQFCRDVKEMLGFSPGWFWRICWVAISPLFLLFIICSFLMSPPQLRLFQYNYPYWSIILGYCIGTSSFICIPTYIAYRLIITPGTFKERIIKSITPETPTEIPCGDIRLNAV

[3] = live HEK293 cells, read-out: IC50 nanoBRET

Structure (SMILES)	pIC50 [1, 3]	inhibition at 10 µM (COX2(h)) [%]	Inhibition HIV-1 protease (HIV-1 protease)	inhibition at 10 µM (CDK2 (h) (cycA)) [%]	inhibition at 10 µM (acetylcholinesterase (h)) [%]	inhibition at 10 µM (A1 (h)) [%]	inhibition at 10 µM (M1 (h)) [%]	selectivity profile in off-target panel [2]	S(90) [2] [%]	Inhibition N muscle-type (h) (antagonist radioligand) (N muscle-type (h))	inhibition at 10 µM (5-HT transporter (h)) [%]	S(50) [2] [%]	pIC50 [1]
O=C(O[C@H](CO)C(F)(F)F)N1CC2(CC(CC3=C4C=CC=[N+]4[B-](F)(F)n4cccc43)C2)C1 [Compound 1]	6.56	45.5	10,30%	7.8	-8.2	-3.9	33.5	very clean selectivity profile	0.0	-11,30%	13		
O=C(OC(C(F)(F)F)C(F)(F)F)N1CC2(CC(CC3=C4C=CC=[N+]4[B-](F)(F)n4cccc43)C2)C1 [Compound 2]	6.14	31.9	-1,90%	6.3	-2.9	4.4	26	very clean selectivity profile	0.0	-0,30%	-4.8	4.0	
O=C(OC(C(F)(F)F)C(F)(F)F)N1CC2(CC(CC3=C4C=CC(c5ccc[nH]5)=[N+]4[B-](F)(F)n4cccc43)C2)C1 [Compound 2a]		49.5	8,30%	-5.8	2.5	-1	-0.7	very clean selectivity profile	0.0	-9,40%	-12.9	0.0	
O=C1CO[C@H]2CCN(C(=O)N3CC4(CC(CC5=C6C=CC=[N+]6[B-](F)(F)n6cccc65)C4)C3)C[C@H]2N1 [Compound 4]	6.71												
O=C1CO[C@H]2CCN(C(=O)N3CC4(CC(CC5=C6C=CC(c7ccc[nH]7)=[N+]6[B-](F)(F)n6cccc65)C4)C3)C[C@H]2N1 [Compound 4a]		48.9	23,80%	-8.3	1.8	8.7	4	very clean selectivity profile	0.0	-1,70%	-9.6	0.0	
O=C(N1CC2(CC(CC3=C4C=CC=[N+]4[B-](F)(F)n4cccc43)C2)C1)N1CC2(CC(n3cnc(C4CC4)n3)C2)C1 [Compound 5]		23.8	5,20%	6.5	-14.4	1.3	14.7	very clean selectivity profile	0.0	17,00%	56.5		7.07
